Test results reported in ChEMBL document CHEMBL5647694, “Novel orally bioavailable EZH1/2 dual inhibitors with greater antitumor efficacy than an EZH2 selective inhibitor” (Cancer Sci, 2017).

Key:
[1] = target: Phosphorylase b kinase gamma catalytic chain, skeletal muscle/heart isoform (Homo sapiens) (UniProt Q16816); test: Inhibition of N-terminal GST-fused full length human PHKG1 (1 to 387 residues) expressed in baculovirus expression system using GS peptide as substrate at 1 uM in presence of ATP by Mobility shift assay
[2] = target: Ephrin type-A receptor 4 (Homo sapiens) (UniProt P54764); test: Inhibition of N-terminal GST-fused human EPHA4 cytoplasmic domain (586 to 986 residues) expressed in baculovirus-infected Sf21 cells using Blk/Lyntide as substrate at 1 uM in presence of ATP by Mobility shift assay
[3] = target: Tyrosine-protein kinase Srms (Homo sapiens) (UniProt Q9H3Y6); test: Inhibition of N-terminal GST-tagged human SRM catalytic domain (215 to 488 residues) expressed in baculovirus-infected Sf21 cells using Blk/Lyntide as substrate at 1 uM in presence of ATP by Mobility shift assay
[4] = target: Cyclin-dependent kinase 1/cyclin B1 (Homo sapiens) (UniProt P06493+P14635); test: Inhibition of N-terminal GST-fused full length human CDC2 (1 to 297 residues)/N-terminal GST fused human CyclinB1 (1 to 433 residues) expressed in baculovirus-infected Sf21 cells using Modified Histone H1 as substrate at 1 uM in presence of ATP by Mobility shift assay
[5] = target: Tyrosine-protein kinase CSK (Homo sapiens) (UniProt P41240); test: Inhibition of N-terminal GST-fused full length human CSK (1 to 450 residues) expressed in baculovirus-infected Sf21 cells using Srctide as substrate at 1 uM in presence of ATP by Mobility shift assay
[6] = target: Inhibitor of nuclear factor kappa-B kinase subunit epsilon (Homo sapiens) (UniProt Q14164); test: Inhibition of N-terminal GST-fused full length human IKK-epsilon(1 to 716 residues) expressed in baculovirus expression system using IkBalpha peptide as substrate at 1 uM in presence of ATP by Mobility shift assay
[7] = target: SRSF protein kinase 2 (Homo sapiens) (UniProt P78362); test: Inhibition of N-terminal GST-fused full length human SRPK2 (1 to 688 residues) expressed in baculovirus expression system using DYRKtide-F as substrate at 1 uM in presence of ATP by Mobility shift assay
[8] = target: Homeodomain-interacting protein kinase 4 (Homo sapiens) (UniProt Q8NE63); test: Inhibition of N-terminal GST-fused full length human HIPK4 (1 to 616 residues) expressed in baculovirus expression system using DYRKtide-F as substrate at 1 uM in presence of ATP by Mobility shift assay
[9] = target: Mitogen-activated protein kinase 10 (Homo sapiens) (UniProt P53779); test: Inhibition of N-terminal GST-fused full length human JNK3 (1 to 426 residues) expressed in Escherichia coli expression system using Modified ERKtide as substrate at 1 uM in presence of ATP by Mobility shift assay
[10] = target: Tyrosine-protein kinase HCK (Homo sapiens) (UniProt P08631); test: Inhibition of N-terminal GST-fused truncated human HCK (25 to 526 residues) expressed in baculovirus-infected Sf21 cells using Srctide as substrate at 1 uM in presence of ATP by Mobility shift assay
[11] = target: Citron Rho-interacting kinase (Homo sapiens) (UniProt O14578); test: Inhibition of N-terminal GST-fused human CRIK catalytic domain (1 to 449 residues) expressed in baculovirus expression system using Histone H3 peptide as substrate at 1 uM in presence of ATP by Mobility shift assay
[12] = target: Interleukin-1 receptor-associated kinase 4 (Homo sapiens) (UniProt Q9NWZ3); test: Inhibition of N-terminal GST-fused full length human IRAK4 (1 to 460 residues) expressed in baculovirus expression system using IRAK1 peptide as substrate at 1 uM in presence of ATP by Mobility shift assay
[13] = target: Lymphokine-activated killer T-cell-originated protein kinase (Homo sapiens) (UniProt Q96KB5); test: Inhibition of N-terminal GST-fused full length human PBK (1 to 322 residues) expressed in baculovirus expression system using Histone H3 peptide as substrate at 1 uM in presence of ATP by Mobility shift assay
[14] = target: Activated CDC42 kinase 1 (Homo sapiens) (UniProt Q07912); test: Inhibition of N-terminal GST-fused wild type human ACK catalytic domain (110 to 476 residues) expressed in baculovirus-infected Sf21 cells using WASP peptide as substrate at 1 uM in presence of ATP by Mobility shift assay
[15] = target: Ephrin type-A receptor 7 (Homo sapiens) (UniProt Q15375); test: Inhibition of N-terminal GST-fused human EPHA7 cytoplasmic domain (595 to 998 residues) expressed in baculovirus-infected Sf21 cells using Blk/Lyntide as substrate at 1 uM in presence of ATP by Mobility shift assay
[16] = target: Mitogen-activated protein kinase 1 (Homo sapiens) (UniProt P28482); test: Inhibition of N-terminal GST-fused full length human ERK2 (1 to 360 residues) expressed in Escherichia coli expression system using Modified Erktide as substrate at 1 uM in presence of ATP by Mobility shift assay
[17] = target: Ribosomal protein S6 kinase alpha-6 (Homo sapiens) (UniProt Q9UK32); test: Inhibition of N-terminal GST-fused human full length RSK4 (1 to 745 residues) expressed in baculovirus expression system using S6K peptide(N-FL) as substrate at 1 uM in presence of ATP by Mobility shift assay
[18] = target: Tyrosine-protein kinase FRK (Homo sapiens) (UniProt P42685); test: Inhibition of N-terminal GST-fused human FRK catalytic domain (223 to 505 residues) expressed in baculovirus-infected Sf21 cells using Srctide as substrate at 1 uM in presence of ATP by Mobility shift assay
[19] = target: Receptor tyrosine-protein kinase erbB-4 (Homo sapiens) (UniProt Q15303); test: Inhibition of N-terminal GST-fused human HER4 cytoplasmic domain (676 to 1308 residues) expressed in baculovirus infected Sf21 cells using Srctide as substrate at 1 uM in presence of ATP by Mobility shift assay
[20] = target: Rho-associated protein kinase 2 (Homo sapiens) (UniProt O75116); test: Inhibition of N-terminal GST-fused human ROCK2 catalytic domain (1 to 553 residues) expressed in baculovirus expression system using LIMKtide as substrate at 1 uM in presence of ATP by Mobility shift assay
[21] = target: SRSF protein kinase 3 (Homo sapiens) (UniProt Q9UPE1); test: Inhibition of N-terminal GST-fused full length human MSSK1 (1 to 567 residues) expressed in baculovirus expression system using DYRKtide-F as substrate at 1 uM in presence of ATP by Mobility shift assay
[22] = target: Myosin light chain kinase 2, skeletal/cardiac muscle (Homo sapiens) (UniProt Q9H1R3); test: Inhibition of N-terminal GST-fused full length human skMLCK (1 to 596 residues) expressed in baculovirus expression system using MLCtide as substrate at 1 uM in presence of ATP by Mobility shift assay

SMILES	inhibition [1]	inhibition [2]	inhibition [3]	inhibition [4]	inhibition [5]	inhibition [6]	inhibition [7]	inhibition [8]	inhibition [9]	inhibition [10]	inhibition [11]	inhibition [12]	inhibition [13]	inhibition [14]	inhibition [15]	inhibition [16]	inhibition [17]	inhibition [18]	inhibition [19]	inhibition [20]	also measured
Cc1cc(C)c(CNC(=O)c2cc(Br)c3c(c2C)O[C@@](C)([C@H]2CC[C@H](N(C)C)CC2)O3)c(=O)[nH]1	-1.5%	-4.3%	-0.1%	1.8%	-0.5%	-5.6%	-1.6%	3%	-2.9%	-2.5%	-7.4%	-5.6%	-2.5%	0.2%	-3.3%	-6.6%	-2.5%	-3.6%	2.6%	2.2%	inhibition [21]: -6.3%; inhibition [22]: 2.4%
Cc1cc(C)c(CNC(=O)c2cc(Cl)c3c(c2C)O[C@@](C)([C@H]2CC[C@H](N(C)C)CC2)O3)c(=O)[nH]1 [VALEMETOSTAT]	-3.7%	-3%	0.6%	8.7%	-5.9%	-2.8%	0%	-3%	-5.8%	-4.2%	-5%	-4.1%	-3.4%	-1.2%	-1.9%	-8.8%	-0.5%	-4.5%	-0.2%	3.3%	inhibition [21]: -5.4%; inhibition [22]: -1.6%
